# Measurements taken from PubChem BioAssay (NCI).
# Several values for one entry are separate records, joined by “and”; a condition that tells them apart may be missing. Equal entries are not always repeated.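 1) Cells in 96-well plates. 2) Compound, 48 h, 5 concentrations. 3) Linear interpolation between surrounding doses. 4) Unreached endpoint = highest concentration. Here, GI50 denotes the concentration required for 50% inhibition of growth. TGI: total growth inhibition.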
# Tests used:
# Assay in all cases: inhibition of tumour cell growth, NCI panel, 48 h
# HT29 colon = system: HT29 colon
# A498 renal = system: A498 renal
# UACC-62 melanoma = system: UACC-62 melanoma
# SF-268 CNS = system: SF-268 CNS
# IGROV1 ovarian = system: IGROV1 ovarian
# SNB-19 CNS = system: SNB-19 CNS
# OVCAR-4 ovarian = system: OVCAR-4 ovarian
# UACC-257 melanoma = system: UACC-257 melanoma
# U251 CNS = system: U251 CNS
# OVCAR-8 ovarian = system: OVCAR-8 ovarian
# SW-620 colon = system: SW-620 colon
# CCRF-CEM leukemia = system: CCRF-CEM leukemia
# MDA-N = system: MDA-N
# LOX IMVI melanoma = system: LOX IMVI melanoma
# MDA-MB-435 = system: MDA-MB-435
# NCI-H460 lung = system: NCI-H460 lung
# K-562 leukemia = system: K-562 leukemia
# HOP-62 NSCLC = system: HOP-62 NSCLC
# ACHN renal = system: ACHN renal
# OVCAR-5 ovarian = system: OVCAR-5 ovarian
# SK-MEL-5 melanoma = system: SK-MEL-5 melanoma
# OVCAR-3 ovarian = system: OVCAR-3 ovarian
# BT-549 breast = system: BT-549 breast
# COLO 205 colon = system: COLO 205 colon
# SN12C renal = system: SN12C renal
# NCI-H23 lung = system: NCI-H23 lung
# SF-295 CNS = system: SF-295 CNS
# SK-MEL-28 melanoma = system: SK-MEL-28 melanoma
# CAKI-1 renal = system: CAKI-1 renal
# MCF7 breast = system: MCF7 breast
# KM12 colon = system: KM12 colon
# HL-60(TB) leukemia = system: HL-60(TB) leukemia
# M14 melanoma = system: M14 melanoma
# SNB-75 CNS = system: SNB-75 CNS
# RPMI-8226 leukemia = system: RPMI-8226 leukemia
# MDA-MB-231 breast = system: MDA-MB-231 breast
# HCC-2998 colon = system: HCC-2998 colon
# HCT-15 colon = system: HCT-15 colon
# EKVX NSCLC = system: EKVX NSCLC
# SK-MEL-2 melanoma = system: SK-MEL-2 melanoma
# A549 NSCLC = system: A549 NSCLC
# SK-OV-3 ovarian = system: SK-OV-3 ovarian
# UO-31 renal = system: UO-31 renal
# MALME-3M melanoma = system: MALME-3M melanoma
# MOLT-4 leukemia = system: MOLT-4 leukemia
# 786-0 renal = system: 786-0 renal
# RXF 393 renal = system: RXF 393 renal
# NCI/ADR-RES ovarian = system: NCI/ADR-RES ovarian
# PC-3 prostate = system: PC-3 prostate
# SF-539 CNS = system: SF-539 CNS
# TK-10 renal = system: TK-10 renal
# T-47D breast = system: T-47D breast
# HOP-92 NSCLC = system: HOP-92 NSCLC
# NCI-H226 lung = system: NCI-H226 lung
# HS 578T breast = system: HS 578T breast
# NCI-H522 lung = system: NCI-H522 lung
# HCT-116 colon = system: HCT-116 colon
# SR leukemia = system: SR leukemia
smiles,measurement,setting,value
CC(C)NCCCNc1c2ccccc2nc2cccc([N+](=O)[O-])c12,TGI,HT29 colon,0.0216 µM
same,GI50,A498 renal,12.3 nM
same,TGI,A498 renal,32.8 nM and 43.2 nM
same,TGI,UACC-62 melanoma,37.4 nM and 31 nM
same,GI50,SF-268 CNS,16.7 nM
same,TGI,SF-268 CNS,32.3 nM and 182 nM
same,TGI,IGROV1 ovarian,35.2 nM and 134 nM
same,GI50,SNB-19 CNS,11.2 nM
same,TGI,OVCAR-4 ovarian,0.0236 µM
same,GI50,UACC-257 melanoma,19.4 nM
same,TGI,UACC-257 melanoma,170 nM and 45.8 nM
same,TGI,U251 CNS,119 nM and 49.6 nM
same,TGI,OVCAR-8 ovarian,0.0555 µM
same,TGI,SW-620 colon,209 nM and 237 nM
same,GI50,CCRF-CEM leukemia,11.8 nM
same,TGI,CCRF-CEM leukemia,85.4 nM and 64.4 nM
same,TGI,MDA-N,0.0292 µM
same,GI50,LOX IMVI melanoma,15.3 nM
same,TGI,LOX IMVI melanoma,25.6 nM and 116 nM
same,TGI,MDA-MB-435,22.5 nM and 18.6 nM
same,TGI,NCI-H460 lung,0.103 µM
same,TGI,K-562 leukemia,16.9 nM and 10.4 nM
same,TGI,HOP-62 NSCLC,80.9 nM and 24.4 nM
same,TGI,ACHN renal,57 nM and 106 nM
same,TGI,OVCAR-5 ovarian,145 nM and 18.3 nM
same,TGI,SK-MEL-5 melanoma,0.0163 µM
same,TGI,OVCAR-3 ovarian,0.037 µM
same,GI50,BT-549 breast,22.2 nM
same,TGI,BT-549 breast,157 nM and 59.9 nM
same,TGI,COLO 205 colon,13 nM and 16.8 nM
same,TGI,SN12C renal,0.15 µM
same,TGI,NCI-H23 lung,0.00908 µM
same,TGI,SF-295 CNS,45.1 nM and 173 nM
same,GI50,SK-MEL-28 melanoma,24.4 nM
same,TGI,SK-MEL-28 melanoma,289 nM and 74.8 nM
same,TGI,CAKI-1 renal,0.239 µM
same,TGI,MCF7 breast,0.043 µM
same,TGI,KM12 colon,40.9 nM and 28.4 nM
same,GI50,HL-60(TB) leukemia,10.2 nM
same,TGI,M14 melanoma,0.0244 µM
same,GI50,SNB-75 CNS,16.1 nM
same,TGI,SNB-75 CNS,97.4 nM and 45.2 nM
same,TGI,RPMI-8226 leukemia,7.96 nM and 26.2 nM
same,GI50,MDA-MB-231 breast,10.7 nM
same,TGI,MDA-MB-231 breast,47 nM and 114 nM
same,TGI,HCC-2998 colon,16.5 nM
same,TGI,HCT-15 colon,> 100 µM
same,GI50,EKVX NSCLC,37.2 nM
same,TGI,EKVX NSCLC,79.1 nM and 268 nM
same,TGI,SK-MEL-2 melanoma,0.0299 µM
same,TGI,A549 NSCLC,150 nM and 58.5 nM
same,TGI,SK-OV-3 ovarian,394 nM and 273 nM
same,GI50,UO-31 renal,30.6 nM
same,TGI,UO-31 renal,451 nM and 148 nM
same,GI50,MALME-3M melanoma,12 nM
same,TGI,MALME-3M melanoma,27.2 nM and 47.1 nM
same,TGI,MOLT-4 leukemia,25.4 nM and 16.9 nM
same,GI50,786-0 renal,10.8 nM
same,TGI,786-0 renal,32.5 nM and 70.4 nM
same,TGI,RXF 393 renal,0.0183 µM
same,GI50,NCI/ADR-RES ovarian,1860 nM
same,TGI,NCI/ADR-RES ovarian,4.65 µM and 24.4 µM
same,TGI,PC-3 prostate,0.038 µM
same,GI50,SF-539 CNS,14.2 nM
same,TGI,SF-539 CNS,228 nM and 40.9 nM
same,TGI,TK-10 renal,463 nM and 70.8 nM
same,TGI,T-47D breast,58.2 nM and 96.8 nM
same,TGI,HOP-92 NSCLC,39.7 nM
same,TGI,NCI-H226 lung,0.0903 µM
same,GI50,HS 578T breast,21.8 nM
same,TGI,HS 578T breast,290 nM and 113 nM
c1cncc(CNCCN2CCNCC2)c1,TGI,HT29 colon,> 100 µM
same,TGI,A498 renal,> 100000 nM
same,TGI,UACC-62 melanoma,> 100000 nM
same,TGI,SF-268 CNS,> 100000 nM
same,TGI,IGROV1 ovarian,> 100000 nM
same,TGI,SNB-19 CNS,> 100 µM
same,TGI,OVCAR-4 ovarian,> 100 µM
same,TGI,UACC-257 melanoma,> 100000 nM
same,TGI,U251 CNS,> 100000 nM
same,TGI,OVCAR-8 ovarian,> 100 µM
same,TGI,SW-620 colon,> 100000 nM
same,TGI,NCI-H522 lung,> 100 µM
same,TGI,MDA-N,> 100 µM
same,TGI,LOX IMVI melanoma,> 100000 nM
same,TGI,MDA-MB-435,> 100000 nM
same,TGI,NCI-H460 lung,> 100 µM
same,TGI,K-562 leukemia,> 100000 nM
same,TGI,HOP-62 NSCLC,> 100000 nM
same,TGI,ACHN renal,> 100000 nM
same,TGI,OVCAR-5 ovarian,> 100000 nM
same,TGI,SK-MEL-5 melanoma,> 100 µM
same,TGI,HCT-116 colon,> 100 µM
same,TGI,OVCAR-3 ovarian,> 100 µM
same,TGI,BT-549 breast,> 100000 nM
same,TGI,COLO 205 colon,> 100000 nM
same,TGI,SN12C renal,> 100 µM
same,TGI,NCI-H23 lung,> 100 µM
same,TGI,SR leukemia,> 100 µM
same,TGI,SF-295 CNS,> 100000 nM
same,TGI,SK-MEL-28 melanoma,> 100000 nM
same,TGI,CAKI-1 renal,> 100 µM
same,TGI,MCF7 breast,> 100 µM
same,TGI,KM12 colon,> 100000 nM
same,TGI,M14 melanoma,> 100 µM
same,TGI,SNB-75 CNS,> 100000 nM
same,TGI,RPMI-8226 leukemia,> 100000 nM
same,TGI,MDA-MB-231 breast,> 100000 nM
same,TGI,HCT-15 colon,> 100 µM
same,TGI,EKVX NSCLC,> 100000 nM
same,TGI,SK-MEL-2 melanoma,> 100 µM
same,TGI,A549 NSCLC,> 100000 nM
same,TGI,SK-OV-3 ovarian,> 100000 nM
same,TGI,UO-31 renal,> 100000 nM
same,TGI,MALME-3M melanoma,> 100000 nM
same,TGI,MOLT-4 leukemia,> 100000 nM
same,TGI,786-0 renal,> 100000 nM
same,TGI,RXF 393 renal,> 100 µM
same,TGI,NCI/ADR-RES ovarian,> 100 µM
same,TGI,PC-3 prostate,> 100 µM
same,TGI,SF-539 CNS,> 100000 nM
same,TGI,TK-10 renal,> 100000 nM
same,TGI,T-47D breast,> 100000 nM
same,TGI,HOP-92 NSCLC,> 100000 nM
same,TGI,NCI-H226 lung,> 100 µM
same,TGI,HS 578T breast,> 100000 nM
Cc1cc(S(=O)(=O)N/C(=C(\C#N)C(=O)c2ccccc2)[n+]2ccc(N(C)C)cc2)c([S-])cc1Cl,TGI,HT29 colon,> 100 µM
same,TGI,A498 renal,> 100000 nM
same,TGI,UACC-62 melanoma,> 100000 nM
same,TGI,SF-268 CNS,> 100000 nM
same,TGI,IGROV1 ovarian,> 100000 nM
same,TGI,SNB-19 CNS,> 100 µM
same,TGI,OVCAR-4 ovarian,> 100 µM
same,TGI,UACC-257 melanoma,> 100000 nM
same,TGI,U251 CNS,> 100000 nM
same,TGI,OVCAR-8 ovarian,> 100 µM
same,TGI,NCI-H522 lung,> 100 µM
same,TGI,CCRF-CEM leukemia,> 100000 nM
same,TGI,MDA-N,> 100 µM
same,TGI,MDA-MB-435,> 100000 nM
same,TGI,NCI-H460 lung,> 100 µM
same,TGI,K-562 leukemia,> 100000 nM
same,TGI,HOP-62 NSCLC,> 100000 nM
same,TGI,ACHN renal,> 100000 nM
same,TGI,OVCAR-5 ovarian,> 100000 nM
same,TGI,SK-MEL-5 melanoma,> 100 µM
same,TGI,HCT-116 colon,> 100 µM
same,TGI,OVCAR-3 ovarian,> 100 µM
same,TGI,BT-549 breast,> 100000 nM
same,TGI,COLO 205 colon,> 100000 nM
same,TGI,SN12C renal,> 100 µM
same,TGI,NCI-H23 lung,> 100 µM
same,TGI,SR leukemia,> 100 µM
same,TGI,SF-295 CNS,> 100000 nM
same,TGI,SK-MEL-28 melanoma,> 100000 nM
same,TGI,CAKI-1 renal,> 100 µM
same,TGI,MCF7 breast,> 100 µM
same,TGI,KM12 colon,> 100000 nM
same,TGI,HL-60(TB) leukemia,> 100 µM
same,TGI,M14 melanoma,> 100 µM
same,TGI,RPMI-8226 leukemia,> 100000 nM
same,TGI,MDA-MB-231 breast,> 100000 nM
same,TGI,HCT-15 colon,> 100 µM
same,TGI,EKVX NSCLC,> 100000 nM
same,TGI,SK-MEL-2 melanoma,> 100 µM
same,TGI,A549 NSCLC,> 100000 nM
same,TGI,SK-OV-3 ovarian,> 100000 nM
same,TGI,UO-31 renal,> 100000 nM
same,TGI,MALME-3M melanoma,94000 nM
same,TGI,MOLT-4 leukemia,> 100000 nM
same,TGI,786-0 renal,> 100000 nM
same,TGI,RXF 393 renal,> 100 µM
same,TGI,NCI/ADR-RES ovarian,> 100 µM
same,TGI,PC-3 prostate,> 100 µM
same,TGI,SF-539 CNS,> 100000 nM
same,TGI,TK-10 renal,> 100000 nM
same,TGI,T-47D breast,> 100000 nM
same,TGI,HOP-92 NSCLC,994 nM
same,TGI,NCI-H226 lung,> 100 µM
same,TGI,HS 578T breast,> 100000 nM
